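Growth conditions: 96-well plates. Treatment: test compound, 48 hours, 5 concentrations. Analysis: linear interpolation between bracketing concentrations; unreached endpoints set to highest concentration. GI50 is the concentration that inhibits growth by half.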 Calls of active or inactive are those of the source. No stated cut-off is given here; in the data, active = GI50 up to about 1.1 µM and inactive = higher. Starred links: 1 amine or outer side, 2 acyl side, 3 side chain; linkers in the order of their positions; H or OH if unused. Non-standard residues stand in square brackets, D forms with d. Residues, ends and D or L forms follow the SMILES beside them. X4 = C[C@H](N[*:1])C(=O)C(C)(C)C(=O)[*:2]; Hmpa(2S,3S) = CC[C@H](C)[C@H](O)C(=O)O; NMeY = CN[C@@H](Cc1ccc(O)cc1)C(=O)O; NMeL = CN[C@@H](CC(C)C)C(=O)O; NMeV = CN[C@H](C(=O)O)C(C)C; βAla = NCCC(=O)O
Columns and labels:
Assay in all cases: inhibition of tumour cell growth, NCI panel, 48 h
UACC-62 = test system: UACC-62
EKVX = test system: EKVX
SK-MEL-28 = test system: SK-MEL-28
K562 = test system: K562
SNB-19 = test system: SNB-19
KM12 = test system: KM12
OVCAR-4 = test system: OVCAR-4
MOLT-4 = test system: MOLT-4
OVCAR-8 = test system: OVCAR-8
ACHN = test system: ACHN
SR = test system: SR
SK-MEL-5 = test system: SK-MEL-5
PC-3 = test system: PC-3
IGROV-1 = test system: IGROV-1
SK-OV-3 = test system: SK-OV-3
HOP-62 = test system: HOP-62
M14 = test system: M14
OVCAR-3 = test system: OVCAR-3
SF-295 = test system: SF-295
SF-539 = test system: SF-539

Row | SMILES | GI50 (UACC-62) | GI50 (EKVX) | GI50 (SK-MEL-28) | GI50 (K562) | GI50 (SNB-19) | GI50 (KM12) | GI50 (OVCAR-4) | GI50 (MOLT-4) | GI50 (OVCAR-8) | GI50 (ACHN) | GI50 (SR) | GI50 (SK-MEL-5) | GI50 (PC-3) | GI50 (IGROV-1) | GI50 (SK-OV-3) | GI50 (HOP-62) | GI50 (M14) | GI50 (OVCAR-3) | GI50 (SF-295) | GI50 (SF-539)
1 | COC(=O)c1cc2c(c3c1CC(Cc1ccccc1)C3=O)CCC2 (stereo not given) | 32.7 µM (inactive) | > 100 µM (inactive) | > 100 µM (inactive) | 38.1 µM (inactive) | > 100 µM (inactive) | 18.4 µM (inactive) | 81.1 µM (inactive) | 53.6 µM (inactive) | 95.3 µM (inactive) | 84.3 µM (inactive) | > 100 µM (inactive) | 64.4 µM (inactive) | > 100 µM (inactive) | 73.3 µM (inactive) | 80.5 µM (inactive) | 99.3 µM (inactive) | 93.3 µM (inactive) | > 100 µM (inactive) | > 100 µM (inactive) | > 100 µM (inactive)
2 | Cc1ccc2[nH]/c(=N/S(=O)(=O)c3cc(C)c(Cl)cc3S)[nH]c2c1 | > 100 µM (inactive) | 31.9 µM (inactive) | 45.7 µM (inactive) | 50.2 µM (inactive) | 36.3 µM (inactive) | 41.6 µM (inactive) | 65 µM (inactive) | 25.6 µM (inactive) | 93.1 µM (inactive) | 41.2 µM (inactive) | 31.6 µM (inactive) | 31.3 µM (inactive) | 50 µM (inactive) | 34.4 µM (inactive) | > 100 µM (inactive) | 34.8 µM (inactive) | 97.7 µM (inactive) | 91.2 µM (inactive) | 49.5 µM (inactive) | 74.3 µM (inactive)
3 | COc1cc2ccc1OCc1cccc(n1)COc1ccc(cc1OC)/C=N\c1ccc(cc1)-c1ccc(cc1)/N=C\2 | > 100 µM (inactive) | > 100 µM (inactive) |  | > 100 µM (inactive) | > 100 µM (inactive) | > 100 µM (inactive) | > 100 µM (inactive) | > 100 µM (inactive) | > 100 µM (inactive) | > 100 µM (inactive) | > 100 µM (inactive) | > 100 µM (inactive) | > 100 µM (inactive) | > 100 µM (inactive) | > 100 µM (inactive) | 78 µM (inactive) | > 100 µM (inactive) | > 100 µM (inactive) | > 100 µM (inactive) | > 100 µM (inactive)
4 | CN(C)c1ccc(/C=C/c2nc3ccccc3s2)cc1 |  | > 100 µM (inactive) | > 100 µM (inactive) | > 100 µM (inactive) | > 100 µM (inactive) | > 100 µM (inactive) | > 100 µM (inactive) | > 100 µM (inactive) | > 100 µM (inactive) | > 100 µM (inactive) | > 100 µM (inactive) | > 100 µM (inactive) | > 100 µM (inactive) | > 100 µM (inactive) | > 100 µM (inactive) | > 100 µM (inactive) | > 100 µM (inactive) |  | > 100 µM (inactive) | > 100 µM (inactive)
5 | COc1ccc(-n2c(=O)c3nc(S)[nH]c3n(-c3ccc(OC)cc3)c2=S)cc1 | > 100 µM (inactive) | > 100 µM (inactive) | > 100 µM (inactive) | > 100 µM (inactive) |  | > 100 µM (inactive) | > 100 µM (inactive) | > 100 µM (inactive) | > 100 µM (inactive) | > 100 µM (inactive) | > 100 µM (inactive) | > 100 µM (inactive) | > 100 µM (inactive) | > 100 µM (inactive) | > 100 µM (inactive) | > 100 µM (inactive) | > 100 µM (inactive) | > 100 µM (inactive) | > 100 µM (inactive) | > 100 µM (inactive)
6 | O=C(CN1CCOCC1)CC(O)(C(F)(F)F)C(F)(F)F | 44.6 µM (inactive) | > 100 µM (inactive) | > 100 µM (inactive) | 55.1 µM (inactive) | 65.9 µM (inactive) | 77.8 µM (inactive) | > 100 µM (inactive) | 37.2 µM (inactive) | > 100 µM (inactive) | 92.5 µM (inactive) | 79.4 µM (inactive) | 47.6 µM (inactive) | 32.1 µM (inactive) | 71.8 µM (inactive) | > 100 µM (inactive) |  | > 100 µM (inactive) | 35.9 µM (inactive) | 67 µM (inactive) | > 100 µM (inactive)
7 | CC(=O)O[C@H]1C(=O)[C@@]2(C)C(C(OC(=O)c3ccccc3)[C@]3(O)CC(OC(=O)C(O)C(NC(=O)c4cccc(Cl)c4)c4ccccc4)C(C)=C1C3(C)C)[C@]1(OC(C)=O)CO[C@@H]1C[C@@H]2O (stereo not given in full) |  | > 10 µM (inactive) |  | 0.562 µM (active) | 2.79 µM (inactive) | 0.507 µM (active) | 3.96 µM (inactive) | 1.01 µM (active) | 0.653 µM (active) | 1.82 µM (inactive) | 0.218 µM (active) | 0.42 µM (active) | 1.53 µM (inactive) | 0.624 µM (active) | 3.67 µM (inactive) | 0.518 µM (active) | 0.851 µM (active) | 0.449 µM (active) | 1.15 µM (inactive) | 0.353 µM (active)
8 | Cc1cccc2c1CC1(C2)Cc2c(C)cccc2C1=O (stereo not given) |  | 16 µM (inactive) | 21.6 µM (inactive) | 26.5 µM (inactive) | 49.3 µM (inactive) | 25.2 µM (inactive) | 30.6 µM (inactive) | 9.91 µM (inactive) | 42.9 µM (inactive) | 24.9 µM (inactive) | 11.2 µM (inactive) | 18.2 µM (inactive) | 31.7 µM (inactive) | 30.4 µM (inactive) | 29.8 µM (inactive) | 23.6 µM (inactive) | 26.6 µM (inactive) | 23.9 µM (inactive) | 27.9 µM (inactive) | 25.9 µM (inactive)
9 | CC(=O)Oc1c(C)c2c(O)c3c1C1=C(OCOC1=C(C)C3=O)/C(C)=C/C(C)(O)C(O)C(C)C(O)C1C(=O)OC(C(C)C1O)C(C)(O)/C=C\C=C(C)C(=O)N2 (stereo not given) | 30.8 µM (inactive) | 10.7 µM (inactive) | 81.5 µM (inactive) | 21.7 µM (inactive) | 66.8 µM (inactive) | 34.8 µM (inactive) |  | 36.1 µM (inactive) | 70 µM (inactive) | 33.9 µM (inactive) | 43.3 µM (inactive) | 32.4 µM (inactive) | 27.5 µM (inactive) | 5.66 µM (inactive) | 35.5 µM (inactive) | 19.2 µM (inactive) | 34.4 µM (inactive) | 43.3 µM (inactive) | 38.3 µM (inactive) | 10.4 µM (inactive)
10 | CC(=O)C1C(=O)C(C(C)=O)C2C3C=CC(C3)C12 (stereo not given) | > 100 µM (inactive) |  | > 100 µM (inactive) | > 100 µM (inactive) | > 100 µM (inactive) | > 100 µM (inactive) | > 100 µM (inactive) | > 100 µM (inactive) | > 100 µM (inactive) | > 100 µM (inactive) | > 100 µM (inactive) | > 100 µM (inactive) | > 100 µM (inactive) | > 100 µM (inactive) | > 100 µM (inactive) | > 100 µM (inactive) |  | > 100 µM (inactive) | > 100 µM (inactive) | > 100 µM (inactive)
11 | CC(C)(C)C1=C(Br)C(F)(C(C)(C)C)OP1(=O)c1ccccc1 (stereo not given) | 15.3 µM (inactive) | 19.3 µM (inactive) | 19.2 µM (inactive) | 10 µM (inactive) | 16.4 µM (inactive) | 18.9 µM (inactive) | 10.1 µM (inactive) |  | 21.6 µM (inactive) | 16.5 µM (inactive) | 11.9 µM (inactive) | 11 µM (inactive) | 18 µM (inactive) | 16 µM (inactive) | 18 µM (inactive) | 16.3 µM (inactive) | 14.8 µM (inactive) | 15.5 µM (inactive) | 21.6 µM (inactive) | 19.1 µM (inactive)
12 | C1C2CC3CC1CC(Nc1nc(NC45CC6CC(CC(C6)C4)C5)nc(NC45CC6CC(CC(C6)C4)C5)n1)(C2)C3 | > 44.7 µM (inactive) | > 43.5 µM (inactive) | > 31.1 µM (inactive) | > 62.5 µM (inactive) | 43.5 µM (inactive) | 22.1 µM (inactive) | > 83 µM (inactive) | 57.3 µM (inactive) | > 26 µM (inactive) | 51.2 µM (inactive) | 51.2 µM (inactive) | 14.3 µM (inactive) | > 67.3 µM (inactive) |  | > 100 µM (inactive) | > 36.5 µM (inactive) | 44 µM (inactive) | > 23.6 µM (inactive) | > 56.1 µM (inactive) | > 100 µM (inactive)
13 | CC[C@H](C)[C@@H]1OC(=O)CCNC(=O)[C@@H](C)NC(=O)C(C)(C)C(=O)[C@H](C)NC(=O)[C@H](Cc2ccc(OC)cc2)N(C)C(=O)[C@H](C(C)C)N(C)C(=O)CNC(=O)[C@H](CC(C)C)N(C)C(=O)CNC1=O (cyclo(G[NMeL]G[NMeV][NMeY](Me)[X4][dA][βAla][Hmpa(2S,3S)])) | 0.294 µM (active) | 3.24 µM (inactive) | 0.15 µM (active) | 0.0389 µM (active) | 0.111 µM (active) |  | 0.284 µM (active) | 2.4 µM (inactive) | 3.58 µM (inactive) | 3.1 µM (inactive) | 0.337 µM (active) | 0.0879 µM (active) | 0.31 µM (active) | 0.697 µM (active) | 0.294 µM (active) | 0.962 µM (active) | 0.885 µM (active) | 0.621 µM (active) | 0.306 µM (active) | 0.252 µM (active)
14 | O=c1c2cc(-c3ccccc3)cnc2sn1-c1ccc(Oc2ccccc2)cc1 | 26.9 µM (inactive) | 68.5 µM (inactive) | > 100 µM (inactive) | > 100 µM (inactive) | 19.2 µM (inactive) | 48.5 µM (inactive) | 19.9 µM (inactive) | 49.2 µM (inactive) | 26.9 µM (inactive) | 66.8 µM (inactive) | > 100 µM (inactive) |  | 20.4 µM (inactive) | 32.6 µM (inactive) | > 100 µM (inactive) | 22.1 µM (inactive) | 46.3 µM (inactive) | 31.5 µM (inactive) | 31 µM (inactive) | 50.4 µM (inactive)
